# According to patent publication US20260097047A1, “Small molecule inhibitors of the ribosome biogenesis factor NVL2” (Board of Regents, The University of Texas System, priority 2023, published 2026):
# Test system: HCT116 cells
# Assay: Cell viability assay (CellTiter-Glo, 72 hours) in HCT116 human colorectal cancer cells
# Assay type: cell-based
# Conditions: Homo sapiens, HCT-116; Table 3; HCT116, 72 hours; read-out: Activity
# Outline: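 2,000 cells/well adhered overnight, then compound added by digital dispenser with DMSO normalized to 0.5%. Viability read after 72 h at 37 °C by ATP-based CellTiter-Glo luminescence. IC50 from ten-point curves baseline-corrected to vehicle, five-parameter asymmetric least-squares fit.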
row,IC50,Structure (SMILES)
1,< 500 nM,"CC#CCN1C(=O)c2ccccc2Sc2cc(NC(=O)Nc3ccc(OC(F)F)cc3)ccc21 [Table 3: —CH2CCMe; 4-F2HCOPh; CH/CH, 1-(10-(But-2-yn-1-yl)-11-oxo-10,11-dihydrodibenzo[b,f][1,4]thiazepin-7-yl)-3-(4-(difluoromethoxy)phenyl) urea]"

# Same assay, conditions: Homo sapiens, HCT-116; Table 5; HCT116, 72 hours; read-out: Activity
row,Structure (SMILES),IC50
1,"CC#CCN1C(=O)c2ccccc2Sc2cc(Nc3ncnc(C#N)n3)ccc21 [4-((10-(But-2-yn-1-yl)-11-oxo-10,11-dihydrodibenzo[b,f][1,4]thiazepin-7-yl)amino)-1,3,5-triazine-2-carbonitrile]",1000 to 5000 nM
2,"CC#CCN1C(=O)c2ccccc2Sc2cc(Nc3nccc(C)c3F)ccc21 [10-(But-2-yn-1-yl)-7-((3-fluoro-4-methylpyridin-2-yl)amino)dibenzo[b,f][1,4]thiazepin-11 (10H)-one]",< 500 nM
3,"CC#CCN1C(=O)c2ccccc2Cc2cc(Nc3ncnc(C#N)c3C)ccc21 [6-((5-(But-2-yn-1-yl)-6-oxo-6,11-dihydro-5H-dibenzo[b,e]azepin-2-yl)amino)-5-methylpyrimidine-4-carbonitrile]",< 500 nM
4,"CC#CCN1C(=O)c2ccccc2Sc2cc(Nc3nc(C#N)ccc3C)ccc21 [6-((10-(But-2-yn-1-yl)-11-oxo-10,11-dihydrodibenzo[b,f][1,4]thiazepin-7-yl)amino)-5-methylpicolinonitrile]",< 500 nM
5,"CCC/C=C/CN1C(=O)c2ccccc2Sc2cc(Nc3cc(C(C)C)ccn3)ccc21 [(E)-10-(Hex-2-en-1-yl)-7-((4-isopropylpyridin-2-yl)amino)dibenzo[b,f][1,4]thiazepin-11 (10H)-one]",< 500 nM
6,"CC#CCN1C(=O)c2ccccc2Sc2cc(Nc3nccc(C#N)c3C)ccc21 [2-((10-(But-2-yn-1-yl)-11-oxo-10,11-dihydrodibenzo[b,f][1,4]thiazepin-7-yl)amino)-3-methylisonicotinonitrile]",< 500 nM

# Now from value to molecule:
row,IC50,Structure (SMILES)
1,500 to 1000 nM,"CC#CCN1C(=O)c2ccc(F)cc2Sc2cc(Nc3nccnc3OC)ccc21 [10-(But-2-yn-1-yl)-3-fluoro-7-((3-methoxypyrazin-2-yl)amino)dibenzo[b,f][1,4]thiazepin-11 (10H)-one]"
2,< 500 nM,"CC#CCN1C(=O)c2ccccc2Sc2cc(Nc3ccncc3C#N)ccc21 [4-((10-(But-2-yn-1-yl)-11-oxo-10,11-dihydrodibenzo[b,f][1,4]thiazepin-7-yl)amino) nicotinonitrile]"
3,< 500 nM,"CC#CCN1C(=O)c2ccccc2Sc2cc(Nc3ncc(C)nc3C)ccc21 [10-(But-2-yn-1-yl)-7-((3,5-dimethylpyrazin-2-yl)amino)dibenzo[b,f][1,4]thiazepin-11 (10H)-one]"

# Same assay, conditions: Homo sapiens, HCT-116; Table 6; HCT116, 72 hours; read-out: Activity
row,IC50,Structure (SMILES)
1,1000 to 5000 nM,"CC#CCN1C(=O)c2ccccc2Sc2cc(NC3COCC3C#N)ccc21 (stereo not shown) [4-((10-(But-2-yn-1-yl)-11-oxo-10,11-dihydrodibenzo[b,f][1,4]thiazepin-7-yl)amino)tetrahydrofuran-3-carbonitrile]"

# Same assay, conditions: Table 3; HCT116, 72 hours; read-out: Activity
row,IC50,Structure (SMILES)
1,< 500 nM,CC#CCN1C(=O)c2ccccc2Sc2cc(NC(=O)N[C@H]3C[C@H](OC)C3)ccc21 [Table 3: —CH2CCMe; trans-3-MeOcBu; CH/CH]

# Same assay, conditions: Table 5; HCT116, 72 hours; read-out: Activity
row,IC50,Structure (SMILES)
1,< 500 nM,CC#CCN1C(=O)c2ccccc2Sc2cc(Nc3ncccc3F)cnc21
2,< 500 nM,CC#CCN1C(=O)c2ccccc2Sc2cc(Nc3ncccc3C#N)cnc21
3,< 500 nM,CC#CCN1C(=O)c2ccccc2Sc2cc(Nc3ncc(C#N)cc3C)cnc21
4,< 500 nM,CC#CCN1C(=O)c2ccccc2Sc2cc(Nc3nccc(C)c3F)cnc21

row,Structure (SMILES),IC50
1,CC=CCN1C(=O)c2ccccc2Sc2cc(Nc3ncc(C)cc3C)cnc21,< 500 nM

# Same assay, conditions: Table 6; HCT116, 72 hours; read-out: Activity
row,IC50,Structure (SMILES)
1,< 500 nM,O=C1c2ccccc2Sc2cc(NC3CC(O)C3)cnc2N1CC#CCl (stereo not shown) [Table 6: —CH2CCCl; 3-HOcBu; CH/N; S]
2,< 500 nM,C#CCN1C(=O)c2ccccc2Sc2cc(NC3CC(O)C3)cnc21 (stereo not shown) [Table 6: —CH2CCH; 3-HOcBu; CH/N; S]
3,< 500 nM,CC#CCN1C(=O)c2ccccc2Sc2cc(NC3CC4(CC(=O)C4)C3)cnc21

# Same assay, conditions: Table 7; cell viability assay, CellTiter-Glo, 72 hours; scaffold drawing 42 with R^2, R^3, X/Y, Z; read-out: Activity
row,IC50,Structure (SMILES)
1,1000 to 5000 nM,COCCN1C(=O)c2ccccc2Sc2cc(NC(=O)c3cccc(C(F)(F)F)c3)ccc21 [—(CH2)2OMe; 3-CF3Ph; CH/CH; S]
2,< 500 nM,C=CCN1C(=O)c2ccc(F)cc2Sc2cc(NC(=O)c3ccc4scnc4c3)ccc21
3,< 500 nM,COCCN1C(=O)c2ccc(F)cc2Sc2cc(NC(=O)c3ccoc3)ccc21 [—(CH2)2OMe; furan-3-yl; CF/CH; S]

# Same assay, conditions: Table 8; analogs of scaffold drawing 43 defined by R^2, R^3, X/Y, W; read-out: Activity (IC50 class, cell viability assay)
row,Structure (SMILES),IC50
1,CC#CCN1C(=O)c2ccccc2Sc2cc(NC(=O)c3ccc4oc(=O)n(C)c4c3)cnc21,< 500 nM
2,COCCCC(=O)Nc1cnc2c(c1)Sc1ccccc1C(=O)N2CC#CC1CC1 [—CH2CC^cPr; (CH2)3OMe; CH/CH; N],< 500 nM
3,CC#CCN1C(=O)c2ccccc2Sc2cc(NC(=O)OCCOC)cnc21 [—CH2CCMe; O(CH2)2OMe; CH/CH; N],< 500 nM
4,O=C1c2ccccc2Sc2cc(NC(=O)C34CC(F)(C3)C4)cnc2N1CC#CC1CC1,< 500 nM
5,COCCC(C)C(=O)Nc1cnc2c(c1)Sc1ccccc1C(=O)N2CC#CC1CC1 (stereo not shown) [—CH2CC^cPr; MeO(CH2)2CHMe-; CH/CH; N],< 500 nM
6,CC#CCN1C(=O)c2ccccc2Sc2cc(NC(=O)c3ccc(OC)nc3)cnc21 [—CH2CCMe; 6-MeO-pyrid-3-yl; CH/CH; N],< 500 nM
7,O=C(CCCO)Nc1cnc2c(c1)Sc1ccccc1C(=O)N2CC#CC1CC1 [—CH2CC^cPr; (CH2)3OH; CH/CH; N],< 500 nM
8,O=C(Nc1cnc2c(c1)Sc1ccccc1C(=O)N2CC#CC1CC1)C1CCOC1 (stereo not shown),< 500 nM

# The next lines start with the values.
row,IC50,Structure (SMILES)
1,< 500 nM,CC#CCN1C(=O)c2ccccc2Sc2cc(NC(=O)C3CCCN3C)ccc21 (stereo not shown)
2,< 500 nM,C#CCN1C(=O)c2cc(F)ccc2Sc2cc(NC(=O)C3CC(COC)C3)ccc21 (stereo not shown) [—CH2CCH; 3-MeOCH2-cBu; CH/CF; CH]
3,< 500 nM,CC#CCN1C(=O)c2ccc(F)cc2Sc2cc(NC(=O)c3ccc(OCF)cc3)ccc21 [—CH2CCMe; 4-FH2COPh; CF/CH; CH]
4,< 500 nM,CC#CCN1C(=O)c2cc(F)ccc2Sc2cc(NC(=O)c3ccc4oc(=O)n(C)c4c3)ccc21
5,< 500 nM,C#CCN1C(=O)c2cc(F)ccc2Sc2cc(NC(=O)C3CC4(CC(=NOC)C4)C3)ccc21 (stereo not shown)
6,< 500 nM,CC#CCN1C(=O)c2ccccc2Sc2cc(NC(=O)c3cccc(C(=O)N(C)C)c3)ccc21 [—CH2CCMe; 3-Me2NC(O)Ph; CH/CH; CH]
7,< 500 nM,CC#CCN1C(=O)c2ccc(Cl)cc2Sc2cc(NC(=O)C(C)CCOC)ccc21 (stereo not shown) [—CH2CCMe; MeO(CH2)2CHMe-; CCI/CH; CH]
8,< 500 nM,CC#CCN1C(=O)c2cc(F)ccc2Sc2cc(NC(=O)C=CCOC)ccc21 [—CH2CCMe; CH—═CHCH2OMe; CH/CF; CH]
9,< 500 nM,COC[C@@H]1C[C@H]1C(=O)Nc1ccc2c(c1)Sc1cc(Cl)ccc1C(=O)N2CC#CCl (relative stereo) [—CH2CCCl; trans-2-MeOCH2-cPr; CCl/CH; CH]
10,< 500 nM,CO[C@H]1C[C@@H](C(=O)Nc2ccc3c(c2)Sc2ccc(F)cc2C(=O)N3CC#CCF)C1 [—CH2CCCH2F; cis-3-MeOcBu; CH/CF; CH]
11,< 500 nM,CC#CCN1C(=O)c2cc(F)ccc2Sc2cc(NC(=O)[C@H]3C[C@H](OC)C3)cnc21 [—CH2CCMe; trans-3-MeOcBu; CH/CF; N]
12,< 500 nM,COCC1CC(C(=O)Nc2cnc3c(c2)Sc2cc(Cl)ccc2C(=O)N3CC#CCl)C1 (stereo not shown) [—CH2CCCl; 3-MeOCH2-cBu; CCI/CH; N]
13,< 500 nM,C#CCN1C(=O)c2ccc(Cl)cc2Sc2cc(NC(=O)[C@@H]3C[C@H]3COC)ccc21 (relative stereo) [—CH2CCH; trans-2-MeOCH2-cPr; CCl/CH; CH]
14,< 500 nM,CC#CCN1C(=O)c2ccccc2Sc2cc(NC(=O)c3ccc(OC)nc3)ccc21 [—CH2CCMe; 6-MeO-pyrid-3-yl; CH/CH; CH]
15,< 500 nM,CC#CCN1C(=O)c2ccc(Cl)cc2Sc2cc(NC(=O)[C@H]3C[C@@H](O)C3)ccc21 [—CH2CCMe; cis-3-OH-cBu; CCI/CH; CH]
16,< 500 nM,CC#CCN1C(=O)c2ccc(F)cc2Sc2cc(NC(=O)c3ccc(OC)cc3)ccc21 [—CH2CCMe; 4-MeOPh; CF/CH; CH]
17,< 500 nM,CO[C@H]1C[C@H](C(=O)Nc2cnc3c(c2)Sc2cc(Cl)ccc2C(=O)N3CC#CCl)C1 [—CH2CCCl; trans-3-MeOcBu; CCI/CH; N]
18,< 500 nM,CC#CCN1C(=O)c2ccccc2Sc2cc(NC(=O)C34CC(C#N)(C3)C4)ccc21
19,< 500 nM,C#CCN1C(=O)c2ccc(Cl)cc2Sc2cc(NC(=O)C3CC4(CC(=NO)C4)C3)ccc21 (stereo not shown)
20,< 500 nM,CC#CCN1C(=O)c2ccc(Cl)cc2Sc2cc(NC(=O)C3CC4(COC4)C3)cnc21
21,< 500 nM,CC#CCN1C(=O)c2ccccc2Sc2cc(NC(=O)[C@@H]3C[C@H]3C(=O)OC)ccc21 (relative stereo) [—CH2CCMe; trans-2-MeO2C-cPr; CH/CH; CH]

# Same assay, conditions: Table 9; HCT116, 72 hours; read-out: Activity
row,Structure (SMILES),IC50
1,CC1c2ccccc2C(=O)N(CC#CC2CC2)c2ccc(NC(=O)[C@@H]3C[C@H]3CO)cc21 (relative stereo),< 500 nM
2,COC1CC(C(=O)Nc2ccc3c(c2)C(C#N)c2ccccc2C(=O)N3CC#CC2CC2)C1 (stereo not drawn) [Table 9: —CH2CC°Pr; trans-3-MeOcBu; CHCN],< 500 nM

# Results, then the molecule that gave them:
row,IC50,Structure (SMILES)
1,< 500 nM,CC#CCN1C(=O)c2ccccc2C(C)c2cc(NC(=O)C3CC(COC)C3)ccc21 (stereo not shown) [Table 9: —CH2CCMe; 3-MeOCH2-cBu; CHMe]
2,< 500 nM,CC#CCN1C(=O)c2ccccc2C(C)c2cc(NC(=O)[C@H]3C[C@@H](O)C3)ccc21 (stereo partly drawn) [Table 9: —CH2CCMe; cis-3-OH-cBu; CHMe]
3,< 500 nM,CC#CCN1C(=O)c2ccccc2C(C)c2cc(NC(=O)[C@H]3C[C@@H](OC)C3)ccc21 (stereo partly drawn) [Table 9: —CH2CCMe; cis-3-MeOcBu; CHMe]

# Same assay, conditions: cell viability assay; Table 10 analogs of scaffold drawing 45 defined by R2, R3, X/Y, W; read-out: Activity
row,IC50,Structure (SMILES)
1,< 500 nM,CC#CCN1C(=O)c2ccc(Cl)cc2Sc2cc(NC(=S)C34CC(OC)(C3)C4)ccc21
